According to publication PMC9714921 (PLOS Pathogens, 2022):
Values joined by “and” are separate entries in the source; they are usually repeats but may differ in a detail not shown here. Equal entries are not always repeated. “Also recorded” adds a separate entry of the source. Where two headings read alike, the source gives them in different places.

Columns and labels:
C. elegans N-AChR = test system: C. elegans N-AChR; set-up: method as in Charvet et al., 2018 [40]; conditions: read-out: EC50 μM ACh; accessory protein Ric-3; ref Charvet et al., 2018 [40]; cited from earlier work
Gpu-ACR-16 = experiment: Voltage-clamp electrophysiology, N-AChR reconstituted in Xenopus laevis oocytes; assay type: cell-based, Gonglyonema pulchrum
Experimental: (§1) cRNA for oocyte injection was prepared with the mMESSAGE mMACHINE T7 kit following manufacturers protocol (Ambion, USA). Concentration was determined using a Nanodrop spectrophotometer. Desired subunit combinations with associated accessory proteins were mixed and diluted with nuclease-free water to a final concentration of 250 ng/uL for each construct.
(§2) Adult female X. laevis oocyte extraction was performed in accordance with the McGill University Animal Use Protocol 2015–7758 following standard protocol. Briefly, frog ovary lobes were placed in a Ca^2+-free OR2 solution (82 mM NaCl, 2 mM KCl, 1 mM MgCl2, 5 mM HEPES buffer, pH 7.3) and manually divided into clusters of <10 oocytes with thin tweezers followed by a 90-minute incubation in 10 mg/mL collagenase type II (Sigma-Aldrich, USA). Oocytes were washed in Ca^2+-free OR2 and placed ND96 solution (NaCl 96 mM, KCl 2 mM, CaCl2 1.8 mM, MgCl2 1 mM and HEPES 5 mM, pH 7.3) supplemented with sodium pyruvate 2.5 mM [86] and incubated at 18°C until cRNA injection. Oocytes were injected with 50 nL (12.5 ng of each injected gene) of the desired cRNA subunit and accessory protein combination mix with the NanojectII (Drummond Scientific, USA). Following injection, oocytes were incubated in ND96 buffer at 18°C until electrophysiology. All electrophysiology was conducted two days post-injection, except for the expression analysis assay in which oocytes were measured every day after injection for three consecutive days.
(§3) All drugs were dissolved in recording solution (NaCl 100 mM, KCl 2.5 mM, CaCl2 1 mM, HEPES 5 mM, pH 7.3) to a stock concentration of 10 mM and diluted to their final recording concentrations. Oxantel and bephenium were first dissolved in DMSO to ensure a final recording concentration contained less than 0.1% DMSO. For agonist profiling, all drugs were diluted to a concentration of 100 μM.
(§4) Oocytes were placed individually in an RC3Z chamber (Harvard Apparatus, USA) submerged in recording solution (NaCl 100 mM, KCl 2.5 mM, CaCl2 1 mM, HEPES 5 mM, pH 7.3). The RC3Z chamber was connected to a perfusion system containing recording solution and ligand solutions. Pulled glass capillaries (World Precision Instruments, USA) were filled with 3M KCl and the tips clipped and checked for appropriate resistance (between 0.5 and 5 MΩ). A 3M KCl agar bridge grounded the oocyte bath chamber. Measurements were made using an Axon Axoclamp 900A amplifier with Digidata1550M. […] Ligand solutions were applied to the oocytes with an approximate flow rate of 1.2 m/s and current responses measured. Oocytes were exposed to the ligand solution until a distinct current peak was observed followed by a wash with the recording solution until current returned to baseline for a minimum of 10 seconds until the next ligand exposure. For BAPTA-AM exposed oocytes, oocytes were incubated in 100 μM BAPTA-AM for four hours prior to electrophysiology recording. Data was analyzed using Clampex 9.2 (Axon Instruments, USA) and statistical analysis and graphs produced in Prism (GraphPad version 9.1). T-tests were used to compare responses with error bars representing standard error. For concentration-response curves, individual oocyte current response to the different ligand concentrations were normalized to the response obtained with 300 μM. Data was fit using the Graphpad “log(agonist) vs normalized response–variable slope” equation, with 95% confidence intervals being reported. […] For examples of oocyte responses, recordings were filtered in Clampfit using the lowband pass at 40 Hz cutoff.

Bma-ACR-16 = assay type: cell-based, Brugia malayi
Experimental: as §1, §2, §3, §4

T. muris N-AChR = conditions: read-out: EC50 μM ACh; accessory protein Ric-3; ref [35]; cited from earlier work
[1] = co-injected: Bma-ric-3 (reference condition)
[2] = co-injected: Bma-ric-3 + Bma-eat-18
[3] = co-injected: Bma-ric-3 + Bma-molo-1
[4] = co-injected: Bma-ric-3 + Bma-unc-50 + Bma-unc-74
[5] = co-injected: Bma-ric-3 + Bma-unc-50 + Bma-unc-74 + Bma-eat-18
[6] = co-injected: Bma-ric-3 + Cel-emc-6
[7] = co-injected: Bma-ric-3 + Cel-nra-2 + Cel-nra-4, listed as acetylcholine
[8] = co-injected: Hco-ric-3, listed as acetylcholine

CC(=O)OCC[N+](C)(C)C [ACh, acetylcholine]
EC50 (C. elegans N-AChR): 22 ± 1.2 µM
response to 100 μM acetylcholine normalized to Day 3 response (Gpu-ACR-16; Day 1 post-injection): 19 ± 6%
response to 100 μM acetylcholine normalized to Day 3 response (Gpu-ACR-16; Day 2 post-injection): 76 ± 6%
current response to 100 μM acetylcholine (Gpu-ACR-16; No accessory protein): 0 ± 0 nA
current response to 100 μM acetylcholine (Gpu-ACR-16; No accessory protein, listed as acetylcholine): 0 ± 0 (n=14) nA
current response to 100 μM acetylcholine (Gpu-ACR-16; [1]): 1281 ± 197 nA
current response to 100 μM acetylcholine (Gpu-ACR-16; co-injected: Bma-ric-3 (reference condition), listed as acetylcholine): 1281 ± 197 (n=8) nA
current response to 100 μM acetylcholine (Gpu-ACR-16; [2]): 1264 ± 177 (n=10) ns nA
current response to 100 μM acetylcholine (Gpu-ACR-16; [3]): 1049 ± 77 (n=16) ns nA
current response to 100 μM acetylcholine (Gpu-ACR-16; [4]): 847 ± 124 (n=14) ns nA
current response to 100 μM acetylcholine (Gpu-ACR-16; [5]): 1854 ± 83 nA
current response to 100 μM acetylcholine (Gpu-ACR-16; co-injected: Bma-ric-3 + Bma-unc-50 + Bma-unc-74 + Bma-eat-18, listed as acetylcholine): 1854 ± 83 (n=14) nA
current response to 100 μM acetylcholine (Gpu-ACR-16; [6]): 1628 ± 123 (n=17) ns nA
current response to 100 μM acetylcholine (Gpu-ACR-16; co-injected: Bma-ric-3 + Cel-nra-2 + Cel-nra-4): 2553 ± 123 nA
current response to 100 μM acetylcholine (Gpu-ACR-16; [7]): 2553 ±123 (n=12) nA
current response to 100 μM acetylcholine (Gpu-ACR-16; co-injected: Hco-ric-3): ~ 1400 nA
current response to 100 μM acetylcholine (Gpu-ACR-16; [8]): 1403 ± 91 nA and 1403 ± 91 (n=14) ns nA
EC50 (Gpu-ACR-16; read-out: EC50 ACh, concentration-response 0.3-300 μM, normalized to 300 μM, with 95% CI): 10.5 µM
current response to 100 μM acetylcholine (Bma-ACR-16; No accessory protein): 0 ± 0 (n=12) nA
current response to 100 μM acetylcholine (Bma-ACR-16; [1]): no responses and 0 ± 0 (n=8) nA
current response to 100 μM acetylcholine (Bma-ACR-16; [2]): 0± 0 (n=10) nA
current response to 100 μM acetylcholine (Bma-ACR-16; co-injected: Bma-ric-3 + Bma-emc-6 + Cel-nra-2 + Cel-nra-4): 11 ± 9 nA
current response to 100 μM acetylcholine (Bma-ACR-16; co-injected: Bma-ric-3 + Bma-emc-6 + Cel-nra-2 + Cel-nra-4 + Bma-eat-18): 2 ± 1 nA
current response to 100 μM acetylcholine (Bma-ACR-16; co-injected: Bma-ric-3 + Bma-emc-6 + Cel-nra-2 + Cel-nra-4 + Bma-eat-18 + Bma-unc-50 + Bma-unc-74): 0 ± 0 nA
current response to 100 μM acetylcholine (Bma-ACR-16; co-injected: Bma-ric-3 + Bma-emc-6 + Cel-nra-2 + Cel-nra-4 + Bma-eat-18 + Bma-unc-50 + Bma-unc-74, listed as acetylcholine): 0 ± 0 (n=11) nA
current response to 100 μM acetylcholine (Bma-ACR-16; co-injected: Bma-ric-3 + Bma-emc-6 + Cel-nra-2 + Cel-nra-4 + Bma-eat-18, listed as acetylcholine): 2 ± 1 (n=12) ns nA
current response to 100 μM acetylcholine (Bma-ACR-16; co-injected: Bma-ric-3 + Bma-emc-6 + Cel-nra-2 + Cel-nra-4, listed as acetylcholine): 11 ± 9 (n=11) ns nA
current response to 100 μM acetylcholine (Bma-ACR-16; [3]): 0 ± 0 (n=16) nA
current response to 100 μM acetylcholine (Bma-ACR-16; [4]): 0 ± 0 (n=5) nA
current response to 100 μM acetylcholine (Bma-ACR-16; [5]): 0 ± 0 (n=13) nA
current response to 100 μM acetylcholine (Bma-ACR-16; [6]): 17 ± 4 nA and 17 ± 4 (n=13) nA
current response to 100 μM acetylcholine (Bma-ACR-16; co-injected: Bma-ric-3 + Cel-nra-2): 33 ± 9 nA
current response to 100 μM acetylcholine (Bma-ACR-16; [7]): 4 ± 2 nA and 4 ± 2 (n=12) nA
current response to 100 μM acetylcholine (Bma-ACR-16; co-injected: Bma-ric-3 + Cel-nra-2, listed as acetylcholine): 33 ± 9 (n=14) nA
current response to 100 μM acetylcholine (Bma-ACR-16; co-injected: Bma-ric-3 + Cel-nra-4): 31 ±13 nA
current response to 100 μM acetylcholine (Bma-ACR-16; co-injected: Bma-ric-3 + Cel-nra-4, listed as acetylcholine): 31 ± 13 (n=12) ns nA
current response to 100 μM acetylcholine (Bma-ACR-16; co-injected: Hco-ric-3): no measurable current; also recorded: no responses
current response to 100 μM acetylcholine (Bma-ACR-16; [8]): 0 ± 0 nA and 0 ± 0 (n=12) nA
EC50 (T. muris N-AChR): 31.1 ± 0.3 µM
